Source: US9695155B2, “Herbicidal substituted pyrimidinyloxy benzene compounds” (E. I. DU PONT DE NEMOURS AND COMPANY, priority 2013, dated 2017)

What was measured:
[1] = tested on: morningglory; assay: Test A preemergence; format: in vivo, Ipomoea spp.; conditions: for Morningglory plant response rating (0 to 100 scale): 125 g ai/ha; for Morningglory plant response rating: 500 g ai/ha, 0 to 100 scale where 0 is no effect and 100 is complete control
Outline: (§1)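 Visual 0–100 rating (100 = complete control) taken about 10 d post-treatment relative to untreated checks. Preemergence: directed soil spray on sown loam/sand pots. Postemergence: seedlings 2–10 cm, 1–2 leaf. Non-phytotoxic solvent formulation with surfactant.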

[2] = tested on: pigweed; assay: Test A preemergence; format: in vivo, Amaranthus retroflexus; conditions: for Pigweed plant response rating (0 to 100 scale): 125 g ai/ha; for Pigweed plant response rating: 500 g ai/ha, 0 to 100 scale where 0 is no effect and 100 is complete control
Outline: as §1

[3] = tested on: barnyardgrass; assay: Test A postemergence; format: in vivo, Echinochloa crus-galli; conditions: 0 to 100 scale where 0 is no effect and 100 is complete control; for Barnyardgrass plant response rating: 125 g ai/ha; for Plant response rating, Barnyardgrass: 500 g ai/ha
Outline: as §1

[4] = tested on: pigweed; assay: Test A postemergence; format: in vivo, Amaranthus retroflexus; conditions: 0 to 100 scale where 0 is no effect and 100 is complete control; for Pigweed plant response rating: 125 g ai/ha; for Plant response rating, Pigweed: 500 g ai/ha
Outline: as §1

[5] = tested on: velvetleaf; assay: Test A postemergence; format: in vivo, Abutilon theophrasti; conditions: 0 to 100 scale where 0 is no effect and 100 is complete control; for Velvetleaf plant response rating: 125 g ai/ha; for Plant response rating, Velvetleaf: 500 g ai/ha
Outline: as §1

[6] = tested on: rice; assay: Test B flooded paddy test; format: in vivo, Oryza sativa; conditions: Flood, 250 g ai/ha; 0 to 100 scale where 0 is no effect and 100 is complete control
Outline: (§2)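 Post-emergence paddy-water application at the 2-leaf stage, with 3 cm flood kept for the whole test. Response was judged visually relative to controls after 13 to 15 greenhouse days, 0 indicating no effect and 100 complete control.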

[7] = tested on: barnyardgrass; assay: Test B flooded paddy test; format: in vivo, Echinochloa crus-galli; conditions: Flood, 250 g ai/ha; 0 to 100 scale where 0 is no effect and 100 is complete control
Outline: as §2

[8] = tested on: wheat, winter; assay: Test C preemergence; format: in vivo, Triticum aestivum; conditions: for Wheat plant response rating: preemergence
Outline: (§3)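 Rated visually on 0–100 (100 = complete control) after 13–15 days under glass. Treatments went onto freshly seeded loam/sand soil or onto emerged plants at the 1- to 4-leaf stage, using a surfactant-containing solvent formulation.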

[9] = tested on: morningglory; assay: Test C preemergence; format: in vivo, Ipomoea coccinea; conditions: for Morningglory plant response rating: preemergence
Outline: as §3

[10] = tested on: soybean; assay: Test C preemergence; format: in vivo, Glycine max; conditions: for Soybean plant response rating: preemergence
Outline: as §3

[11] = tested on: barnyardgrass; assay: Test C preemergence; format: in vivo, Echinochloa crus-galli; conditions: for Barnyardgrass plant response rating: preemergence; for Plant response rating, Barnyardgrass: Preemergence, scale 0 to 100, 0 no effect, 100 complete control
Outline: as §3

[12] = tested on: waterhemp; assay: Test C preemergence; format: in vivo, Amaranthus rudis; conditions: for Waterhemp plant response rating: preemergence
Outline: as §3

[13] = tested on: blackgrass; assay: Test C postemergence; format: in vivo, Alopecurus myosuroides; conditions: for Plant response rating (0 to 100), Blackgrass: 16 g ai/ha, 0 is no effect, 100 is complete control; for Blackgrass plant response rating: 31 g ai/ha; for Blackgrass plant response rating / Plant response rating, Blackgrass: scale 0 to 100 (0 no effect, 100 complete control)
Outline: as §3

[14] = tested on: large (Lg) crabgrass; assay: Test C postemergence; format: in vivo, Digitaria sanguinalis; conditions: for Plant response rating (0 to 100), Crabgrass, Large: 16 g ai/ha, 0 is no effect, 100 is complete control; for Crabgrass, Large plant response rating: 31 g ai/ha; for Crabgrass, Large plant response rating / Plant response rating, Crabgrass, Large: scale 0 to 100 (0 no effect, 100 complete control)
Outline: as §3

[15] = tested on: ragweed; assay: Test C postemergence; format: in vivo, Ambrosia elatior; conditions: for Plant response rating (0 to 100), Ragweed: 16 g ai/ha, 0 is no effect, 100 is complete control; for Ragweed plant response rating: 31 g ai/ha; for Ragweed plant response rating / Plant response rating, Ragweed: scale 0 to 100 (0 no effect, 100 complete control)
Outline: as §3

[16] = 16 g ai/ha, scale 0 to 100 (0 no effect, 100 complete control)
[17] = 62 g ai/ha, scale 0 (no effect) to 100 (complete control)
[18] = 125 g ai/ha, scale 0 (no effect) to 100 (complete control)
[19] = postemergence, visual rating, 13 to 15 days
[20] = 125 g ai/ha, postemergence, visual rating
[21] = Preemergence, 62 g ai/ha, scale 0 to 100, 0 no effect, 100 complete control
[22] = Postemergence, 62 g ai/ha, 13 to 15 days

Row | Compound | Morningglory plant response rating (0 to 100 scale) [1] | Morningglory plant response rating [1] | Pigweed plant response rating (0 to 100 scale) [2] | Pigweed plant response rating [2] | Barnyardgrass plant response rating [3] | Plant response rating, Barnyardgrass [3] | Pigweed plant response rating [4] | Plant response rating, Pigweed [4] | Velvetleaf plant response rating [5] | Plant response rating, Velvetleaf [5] | Plant response rating, Rice [6] | Plant response rating, Barnyardgrass [7] | Wheat plant response rating [8, 16] | Wheat plant response rating [8, 18] | Morningglory plant response rating [9, 16] | Morningglory plant response rating [9, 18] | Soybean plant response rating [10, 16] | Soybean plant response rating [10, 18] | Barnyardgrass plant response rating [11, 16] | Barnyardgrass plant response rating [11, 18] | other results
1 | FC(F)(F)c1cnn(-c2c(Cl)cccc2Oc2ncc(Cl)cn2)c1 [Compound 167] | 90 | 100 | 100 | 100 | 70 | 100 | 100 | 100 | 100 | 100 | 0 | 35 | 0 | 50 | 30 | 100 | 10 | 90 | 5 | 100 | Wheat plant response rating [8, 17]: 5; Morningglory plant response rating [9, 17]: 50; Soybean plant response rating [10, 17]: 90; Barnyardgrass plant response rating [11, 17]: 100; Plant response rating, Barnyardgrass ([11]; 31 g ai/ha): 85; Waterhemp plant response rating [12, 16]: 100; Waterhemp plant response rating [12, 17]: 100; Waterhemp plant response rating [12, 18]: 100; Plant response rating (0 to 100), Blackgrass ([13]; postemergence): 0; Blackgrass plant response rating [13, 19]: 5; Plant response rating, Blackgrass [13, 20]: 30; Plant response rating, Blackgrass ([13]; Postemergence, 62 g ai/ha): 5; Plant response rating (0 to 100), Crabgrass, Large ([14]; postemergence): 5; Crabgrass, Large plant response rating [14, 19]: 5; Plant response rating, Crabgrass, Large [14, 20]: 10; Plant response rating, Crabgrass, Large ([14]; Postemergence, 62 g ai/ha): 5; Plant response rating (0 to 100), Ragweed ([15]; postemergence): 10; Ragweed plant response rating [15, 19]: 10; Plant response rating, Ragweed [15, 20]: 55; Plant response rating, Ragweed ([15]; Postemergence, 62 g ai/ha): 30
2 | N#Cc1cnn(-c2c(Oc3ncc(Cl)cn3)cccc2C(F)F)c1 [Compound 236] | 30 | 100 | 100 | 100 | 100 | 100 | 100 | 100 | 90 | 100 | 0 | 30 | 0 | 60 | 0 | 98 | 35 | 95 | 10 | 100 | Plant response rating, Wheat [8, 21]: 0; Plant response rating, Morningglory [9, 21]: 55; Plant response rating, Soybean [10, 21]: 90; Plant response rating, Barnyardgrass ([11]; 62 g ai/ha): 98; Waterhemp plant response rating [12, 16]: 98; Waterhemp plant response rating [12, 18]: 100; Plant response rating, Waterhemp [12, 21]: 98; Plant response rating (0 to 100), Blackgrass ([13]; postemergence): 0; Blackgrass plant response rating [13, 19]: 5; Plant response rating, Blackgrass [13, 20]: 20; Plant response rating, Blackgrass [13, 22]: 5; Plant response rating (0 to 100), Crabgrass, Large ([14]; postemergence): 5; Crabgrass, Large plant response rating [14, 19]: 5; Plant response rating, Crabgrass, Large [14, 20]: 5; Plant response rating, Crabgrass, Large [14, 22]: 5; Plant response rating (0 to 100), Ragweed ([15]; postemergence): 10; Ragweed plant response rating [15, 19]: 15; Plant response rating, Ragweed [15, 20]: 75; Plant response rating, Ragweed [15, 22]: 40
